Source: US10179355B2, “Bioremediation enhancing agents and methods of use” (JRW BIOREMEDIATION, LLC, priority 2007, dated 2019)

Tests used:
[1] = test system: dechlorinating bacteria known to convert PCE to ethene; assay: Set C: Nutrient Comparisons, PCE dechlorination microcosms (kinetics, Relative Rate); assay type: cell-based, Dehalococcoides and Dehalobacter spp.
From the text: Certain contaminated materials (or sites) may contain indigenous microbial communities that are sufficient for complete bioremediation of contaminants. For such sites, there is no need to add microbes unless the indigenous microbes are genetically deficient in achieving the desired clean-up goals. For those sites that are microbiologically limited, microorganisms may be added to the contaminated materials (or sites). In one embodiment, the inoculum may be a mixed culture of halo-respiring bacteria that have been enriched to reach an optimal cell density. These mixed cultures of halo-respiring bacteria may be typically obtained from sediment samples from rivers, streams or any waterways. More specifically, the inoculum used in the Examples was originated from a Sangamon River sediment sample (Lodge Park, Piatt County, Ill.) See, e.g., Brennan, R. A., Sanford, R. A. and Werth, C. J. (2006). “Biodegradation of Tetrachloroethene by Chitin Fermentation Products in a Continuous Flow Column System.” Journal of Environ. Engr., June 665-673. This culture had grown for several years on PCE, anaerobic basal salts medium, Wolfe's vitamin solution and various electron donors including lactate (1-2 millimolar (mM)), formate (4 mM) and chitin using the Volatile Interface Transfer Apparatus (VITA) reactor system at the University of Illinois. Brennan, R. A., and Sanford, R. A. (2002). “Continuous steady-state method using Tenax for delivering tetrachloroethene to chlororespiring bacteria.” Appl. Environ. Microbiol., 68(3), 1464-1467. […] Using 16S rRNA gene-specific primers, both Dehalococcoides and Dehalobacter spp. were detected. Quantitative real-time PCR has been used to determine that approximately 1.65×10^7 Dehalococcoides gene copies were present per ml of culture.
For purpose of this disclosure, each bottle may be started with a certain amount of PCE. At subsequent times each bottle may be sampled for the degradation daughter products of PCE, namely trichloroethene (TCE), cis-dichloroethene (DCE), vinyl chloride (VC) and ethene, etc. Trans-DCE and 1,1-DCE are also daughter products of PCE, but they may not be detectable under the conditions disclosed here.
The rate of degradation may be determined by calculating the number of pmoles of chloride ions removed from PCE and subsequently from the amounts of the daughter products generated. The calculation may be performed as follows: Chloride (μmoles)=[…]−4×PCE (μmoles)−3×TCE (pmoles)−2×DCE (μmoles)−VC (μmoles)
Next, the dechlorination rate may be determined for each bottle at each time by dividing the Chloride generated by the time (days). The data may be then normalized to the lactate control by taking the ratio of Chloride Rate (pmoles/day) and the Lactate Control Chloride Rate (pmoles/day). This ratio is called Relative Rate and is dimensionless.
As shown in the Examples, a paired t-test has been conducted to calculate the probability that the Relative Rate of one group (i.e. with Nutrient) is greater than the other group (i.e. without Nutrient). The null hypothesis is that the underlying means of the two paired groups are equal. The Probability that one group has higher Relative Rates than the other group is shown in various tables in the Examples.
The following components were used in the system for bioremediating contaminated ground water microcosms in Examples 2-8: • 160 milliliter (ml) stoppered serum bottles • 100 ml of anaerobic culture medium, groundwater containing an excess of bioavailable phosphorus and nitrogen at 0.5 mM Phosphate and 1 mM ammonium degassed with a nitrogen sparge • Nominally 1 gram of limestone • 19.54 micromoles (pmoles) Perchloroethene (PCE) • An excess of various electron donors were utilized • 3 ml of inoculum containing dechlorinating bacteria known to convert PCE to ethene. […]

[2] = test system: dechlorinating bacteria known to convert PCE to ethene; assay: Set C: Efficiency by Volatile Fatty Acid Analysis; assay type: cell-based, Dehalococcoides and Dehalobacter spp.
From the text: Sets B, C, D, E, and G further contain figures and tables showing results of the characterization of the Efficiency and the Relative Efficiency of electron donor usage. Efficiency may be defined as the percent of electron donor utilized for dechlorination, and may be calculated by dividing the pmoles of Chloride ion generated by the pmoles of electron donor consumed as measured by either Volatile Fatty Acid (VFA) analysis (Sets B, C, and G) or Chemical Oxygen Demand (COD) analysis (Set D and E). The Relative Efficiency of the electron donor utilization may be defined as the Efficiency of the Electron Donor divided by the Efficiency of the Lactate Control.
The method used to calculate the consumption of the electron donor measured the propionate, acetate and formate levels to calculate the consumption of electron donor over time. The lactate and propionate fermented very rapidly resulting in acetate and formate as the only measurable VFAs.

Question: Which “Average Relative Rate” value [1] does the source give for `CC(O)C(=O)[O-].[Na+]` (stereo not shown) [Lactate Control, sodium lactate] here?
Answer: 1.00

Question: And the “Cl^− Rate ± s.d.” value ([1]; 0 days)?
Answer: 0.00 ± 0.00 µmol

Question: And the “Cl^− ± s.d.” value ([1]; 0 days)?
Answer: 0.00 ± 0.00 µmol

Question: What about the “DCE ± s.d.” value ([1]; 0 days) of the same compound?
Answer: 0.00 ± 0.00 µmol

Question: What about the “Ethene ± s.d.” value ([1]; 0 days) of the same compound?
Answer: 0.00 ± 0.00 µmol

Question: What about the “PCE ± s.d.” value ([1]; 0 days) of the same compound?
Answer: 19.54 ± 0.00 µmol

Question: And the “TCE ± s.d.” value ([1]; 0 days)?
Answer: 0.00 ± 0.00 µmol

Question: And the “VC ± s.d.” value ([1]; 0 days)?
Answer: 0.00 ± 0.00 µmol

Question: And the “Cl^− Rate ± s.d.” value ([1]; 21 days)?
Answer: 2.43 ± 0.13 µmol

Question: What about the “Cl^− ± s.d.” value ([1]; 21 days) of the same compound?
Answer: 51.01 ± 2.69 µmol

Question: And the “DCE ± s.d.” value ([1]; 21 days)?
Answer: 5.05 ± 0.62 µmol

Question: What about the “Ethene ± s.d.” value ([1]; 21 days) of the same compound?
Answer: 0.09 ± 0.02 µmol

Question: What about the “PCE ± s.d.” value ([1]; 21 days) of the same compound?
Answer: 0.66 ± 0.52 µmol

Question: What about the “TCE ± s.d.” value ([1]; 21 days) of the same compound?
Answer: 1.20 ± 1.01 µmol

Question: What about the “VC ± s.d.” value ([1]; 21 days) of the same compound?
Answer: 10.83 ± 1.56 µmol

Question: And the “Cl^− Rate ± s.d.” value ([1]; 35 days)?
Answer: 1.36 ± 0.03 µmol

Question: And the “Cl^− ± s.d.” value ([1]; 35 days)?
Answer: 47.71 ± 1.16 µmol

Question: What about the “DCE ± s.d.” value ([1]; 35 days) of the same compound?
Answer: 2.02 ± 1.88 µmol

Question: And the “Ethene ± s.d.” value ([1]; 35 days)?
Answer: 0.54 ± 0.29 µmol

Question: What about the “PCE ± s.d.” value ([1]; 35 days) of the same compound?
Answer: 0.00 ± 0.00 µmol

Question: What about the “TCE ± s.d.” value ([1]; 35 days) of the same compound?
Answer: 0.00 ± 0.00 µmol

Question: And the “VC ± s.d.” value ([1]; 35 days)?
Answer: 26.41 ± 2.65 µmol

Question: What about the “Cl^− Rate ± s.d.” value ([1]; 49 days) of the same compound?
Answer: 1.03 ± 0.01 µmol

Question: What about the “Cl^− ± s.d.” value ([1]; 49 days) of the same compound?
Answer: 50.42 ± 0.27 µmol

Question: What about the “DCE ± s.d.” value ([1]; 49 days) of the same compound?
Answer: 0.00 ± 0.00 µmol

Question: What about the “Ethene ± s.d.” value ([1]; 49 days) of the same compound?
Answer: 3.79 ± 1.31 µmol

Question: And the “PCE ± s.d.” value ([1]; 49 days)?
Answer: 0.00 ± 0.00 µmol

Question: What about the “TCE ± s.d.” value ([1]; 49 days) of the same compound?
Answer: 0.00 ± 0.00 µmol

Question: And the “VC ± s.d.” value ([1]; 49 days)?
Answer: 27.74 ± 0.27 µmol

Question: What about the “Relative Rate” value ([1]; bottle 1, 21 days) of the same compound?
Answer: 1.06

Question: And the “Relative Rate” value ([1]; bottle 1, 35 days)?
Answer: 1.02

Question: What about the “Relative Rate” value ([1]; bottle 1, 49 days) of the same compound?
Answer: 1.00

Question: And the “Relative Rate” value ([1]; bottle 2, 21 days)?
Answer: 0.99

Question: What about the “Relative Rate” value ([1]; bottle 2, 35 days) of the same compound?
Answer: 0.97

Question: What about the “Relative Rate” value ([1]; bottle 2, 49 days) of the same compound?
Answer: 0.99

Question: What about the “Relative Rate” value ([1]; bottle 3, 21 days) of the same compound?
Answer: 0.95

Question: And the “Relative Rate” value ([1]; bottle 3, 35 days)?
Answer: 1.00

Question: And the “Relative Rate” value ([1]; bottle 3, 49 days)?
Answer: 1.01

Question: And the “Estimated % Efficiency” value [2]?
Answer: 2.55%

Question: What about the “Relative Efficiency” value ([2]; relative to Lactate Control) of the same compound?
Answer: 1.00
